The source of these data is US11484564B2, “Adhesion prevention material” (priority 2017, dated 2022).

Entries after “also recorded” stand apart in the source; their conditions may differ. Non-standard residues stand in square brackets, D forms with d. No end group written: not given here. Hyp = O=C(O)[C@@H]1C[C@@H](O)CN1

For this experiment, the system named is flexor digitorum profundus tendon. In words: Evaluation of antiadhesive effect in cut and sutured flexor digitorum profundus tendon (adhesion score, 3 portions). Format: in vivo, rabbit. The conditions noted are these: 0.15 mL, 2 weeks. How it is done: As supplied animals, 13-week old rabbits (Kbl: JW, male) were used. By the same procedure as in the above-described Test Example 1, anesthesia, hair removal, holding, and sterilization were performed. Next, the skin covering a metatarsus of the left hind limb was incised longitudinally under anesthesia to expose flexor tendons. Among the exposed flexor tendons, a flexor digitorum profundus tendon was cut by sharp dissection using a scalpel. Then, the dissected region of the flexor digitorum profundus tendon was sutured with a suture (trade name: “6-0 Prolene”, Ethicon, Inc.) by a modified Kessler technique, hemostasis and washing with physiological saline were performed. Then, test samples were administered to the exposed flexor digitorum profundus tendon and its surroundings. The test samples were administered as follows. […] Then, the incised portion was sutured with a suture (trade name: “5-0 suture with needle for clinical use”, Matsuda Ika Kogyo CO., LTD.). The rabbit was fed with an e-collar around the neck to prevent self-injurious behavior. At 2 weeks after administration of the test sample, the rabbit was painlessly sacrificed by an overdose of Somnopentil (a trade name “pentobarbital sodium”, Kyoritsu Seiyaku Corporation) by auricular vein administration. The operated site was incised again, and degrees of adhesion were evaluated according to the criteria with respect to the following three portions: between flexor digitorum profundus tendon and gliding floor, between flexor digitorum profundus tendon and flexor digitorum superficialis tendon, and between flexor digitorum profundus tendon and other surrounding tissues. The total of the scores of the three portions was designated as a score for the individual. <Evaluation Criteria> 0: No adhesion 1: Easily dissectable from surrounding tissues by blunt dissection 2: Dissectable from surrounding tissues by blunt dissection 3: Dissection from surrounding tissues requires slightly sharp dissection 4: Dissection from surrounding tissues requires completely sharp dissection

The mark [1] stands for this setting: Test Example 7, peptide 30% by weight with gel powder (B) 20% by weight.
[2] abbreviates: Test Example 9, tripeptide 30% by weight with gel powder (B) 20% by weight.
Where [3] appears, read: Test Example 6, peptide 30% by weight with gel powder (B) 20% by weight.
The mark [4] stands for this setting: Test Example 5, peptide 30% by weight with crosslinked-gelatin sponge gel powder (B) 20% by weight.

Consider (Gly-Pro-Hyp)10 [polypeptide 1], for which the antiadhesive effect entry under setting [1] is “antiadhesive effects were observed; also recorded: lower than those in tripeptide 4 and oligopeptide 1”.

Arg-Pro-[Hyp] [tripeptide 7]: under setting [2], the antiadhesive effect entry is “antiadhesive effects were observed”.

Tyr-Pro-[Hyp] [tripeptide 8]: under setting [2], the antiadhesive effect result is “antiadhesive effects were observed”.

Turning to Pro-Hyp [dipeptide 1], under setting [3], the antiadhesive effect entry is listed as “contribute to the antiadhesive effect”.

For Ile-Pro-[Hyp] [tripeptide 5], the antiadhesive effect entry under setting [2] was “antiadhesive effects were observed”.

For the substance Gly-Pro-[Hyp] [tripeptide 4], the antiadhesive effect result is “the same antiadhesive effect as in the case in which both peptide mixture 1 and the crosslinked-gelatin sponge gel were administered was observed” under setting [4]; “contribute to the antiadhesive effect” under setting [3]; “antiadhesive effects were observed” under setting [1]; “antiadhesive effects were observed” under setting [2].

For the substance “Gly-Pro-Ala [tripeptide 3, reference compound]”, the antiadhesive effect entry under setting [4] is “the antiadhesive effect was inferior to the case in which peptide mixture 1 was used”.

Take (Gly-Pro-Hyp)5 [oligopeptide 1]: the antiadhesive effect entry under setting [1] is on record as “antiadhesive effects were observed”.

In the case of “Gly-Pro [dipeptide 2, reference compound]”, the antiadhesive effect entry under setting [3] is listed as “the antiadhesive effect was decreased”.

Take Asn-Pro-[Hyp] [tripeptide 6]: the antiadhesive effect result under setting [2] is listed as “antiadhesive effects were observed”.

Regarding “Gly-Ala-[Hyp] [tripeptide 2, reference compound]”, under setting [4], the antiadhesive effect entry is “the antiadhesive effect was inferior to the case in which peptide mixture 1 was used”.
